Source: patent publication US10610467B2, “Lightening composition comprising ginseng-derived exosome-like vesicles” (AMOREPACIFIC CORPORATION, priority 2015, dated 2020)

Test system: Human primary melanocytes
Assay: Melanin production by human melanocytes irradiated with 20 mJ/cm^2 UVB 2 times, treated with test substances for 2 weeks (Test Example 3)
Type: cell-based
Experimental: Human primary melanocytes (Life Technologies, CA, USA) were cultured in M-254 medium (Gibco BRL, NY, USA) supplemented with human melanocyte growth supplement (HMGS; Gibco BRL, NY, USA) under the condition of 37° C. and 5% CO2. After plating the cells on a 100-mm culture dish with 2×10^5 cells per dish and waiting overnight, 20 mJ/cm^2 UVB was radiated 2 times with a 24-hour interval. Then, the cells were cultured for 2 weeks while replacing the medium with one containing the ginseng-derived exosome-like vesicles obtained in Example 1 at concentrations of 0.1 μg/mL, 1 μg/m L, 5 μg/mL or 10 μg/mL once in 4 days. For comparison, positive control groups were treated with 30 μM Melasolv, 1 μM compound K or 2 ppm fermented saponin for 2 weeks in the same manner and melanin production was measured. As negative control groups, melanocytes not treated with UVB and melanocytes treated with UVB but not treated with the test substances were cultured in the same manner. 2 weeks later, the cells were detached from the culture dish and counted. The cells of the same number were collected into a microtube, lysed with a RIPA lysis buffer (Millipore, 20-188) and then centrifuged at 13,500 rpm for 30 minutes. The precipitating pellets were dissolved in 1 N NaOH and photographed for comparison of color. Melanin contents were compared by measuring absorbance at 450 nm.

SMILES | Decrease (%) in melanin contents (1 μM) | Decrease (%) in melanin contents (30 μM)
CC(C)=CCC[C@](C)(O[C@@H]1O[C@H](CO)[C@@H](O)[C@H](O)[C@H]1O)[C@H]1CC[C@]2(C)[C@@H]1[C@H](O)C[C@@H]1[C@@]3(C)CC[C@H](O)C(C)(C)[C@@H]3CC[C@]12C [Comp. K, compound K] | 28.3% | –
COc1cc(/C=C/C(=O)Oc2cc(C)ccc2C(C)C)cc(OC)c1OC [Melasolv] | – | 54.0%
